{
  "source": "patent US5922558A",
  "about": "“Methods and compositions for generating chemiluminescence with a peroxidase” (Lumigen, Inc., priority 1997, dated 1999)",
  "key": {"[1]": {"molecular_target": "T1, sheep anti-mouse-HRP conjugate (Armoracia rusticana, UniProt P00433)", "T1 construct": "purchased Boehringer-Mannheim", "T1 sequence (P00433 31-338 limits assumed)": "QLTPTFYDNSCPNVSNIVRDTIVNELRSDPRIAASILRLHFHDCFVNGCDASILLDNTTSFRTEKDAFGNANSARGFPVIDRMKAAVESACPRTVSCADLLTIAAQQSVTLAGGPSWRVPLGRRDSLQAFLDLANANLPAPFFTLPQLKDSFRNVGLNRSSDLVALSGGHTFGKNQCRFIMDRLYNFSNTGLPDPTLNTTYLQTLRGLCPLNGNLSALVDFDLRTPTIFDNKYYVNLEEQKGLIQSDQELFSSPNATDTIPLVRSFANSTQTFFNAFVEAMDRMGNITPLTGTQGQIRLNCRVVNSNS", "test": "Western blot assay of β-galactosidase via an HRP-labeled antibody with chemiluminescent reagent, X-ray film", "settings": "for Western blot result compared with reagent containing compound 5: both PVDF and nitrocellulose membranes", "text": "Compositions of the present invention were used to detect and quantify a protein, β-galactosidase (β-gal) in a Western blot with an HRP-labeled antibody on a polyvinylidene difluoride (PVDF) membrane. Dilutions of β-gal containing 5000, 1000, 180, 30 and 5 pg, respectively, of protein were electrophoresed and transferred to PVDF membranes (Millipore, Bedford, Mass.). The membranes were blocked with 1% non-fat milk in T-TBS (0.05% Tween 20 in TBS; TBS is 50 mmol/L Tris-HCl, pH 7.4, 0.15 mol/L NaCl) and then reacted sequentially with a 1:1500 dilution of mouse anti-β-gal (Boehringer-Mannheim, Indianapolis) and 1:600 dilution of sheep anti-mouse-HRP conjugate (Boehringer-Mannheim). The membranes were washed in T-TBS and soaked for 3 min with a reagent comprising 0.055M tris buffer, pH 8.6 containing 0.66 mM acridan phosphate 5, 0.05 mM p-phenylphenol, 0.25 mM urea peroxide, 0.5 mM EDTA, 0.0125% Tween 20. The membranes were placed between transparent plastic sheets and exposed to X-ray film. […] The light produced led to intense emission which could be imaged for several hours.\nA Western blot assay according to the procedure in the previous example was performed using nitrocellulose membrane (Schleicher & Schuell, Keene, N.H.) as the solid phase. β-Galstandards in the range of 5000-5 pg were used. The detection reagent of the previous example permitted detection to be performed over several hours."}, "[2]": {"molecular_target": "T2, horseradish peroxidase (HRP) (Armoracia rusticana, UniProt P00433)", "T2 sequence (P00433 31-353)": "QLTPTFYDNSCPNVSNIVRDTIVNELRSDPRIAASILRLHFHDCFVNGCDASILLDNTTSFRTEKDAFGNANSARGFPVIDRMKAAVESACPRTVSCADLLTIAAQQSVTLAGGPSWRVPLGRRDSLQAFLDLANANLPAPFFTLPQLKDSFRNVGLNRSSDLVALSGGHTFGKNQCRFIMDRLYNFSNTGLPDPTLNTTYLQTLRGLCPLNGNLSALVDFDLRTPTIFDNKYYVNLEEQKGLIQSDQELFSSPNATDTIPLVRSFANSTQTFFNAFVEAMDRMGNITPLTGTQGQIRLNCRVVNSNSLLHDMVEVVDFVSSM", "test": "Chemiluminescent detection of HRP in solution with reagent composition (tris buffer, urea peroxide, p-phenylphenol, EDTA, Tween 20)", "type": "biochemical", "protocol": "Reagent compositions comprising 0.055M tris buffer, pH 8.6, 0.25 mM urea peroxide, 0.05 mM p-phenylphe nol, 0.5 mM EDTA, 0.0125% Tween 20 and 3.3×10^-4 M acridan 5 were tested for production of chemiluminescence by reacting triplicate 100 μL aliquots with 10 μL of solutions of HRP in water containing between 1.4×10^-15 and 1.4×10^-19 moles of enzyme. […] The relation between chemiluminescence intensity at 15 min and amount of enzyme is depicted in FIG. 1.\nReagent compositions comprising 0.055M tris buffer, pH 8.6, 0.25 mM urea peroxide, 0.05 mM p-phenylphenol, 0.5 mM EDTA, 0.0125% Tween 20 and 3.3×10^-4 M acridan 13 were tested for production of chemiluminescence by reacting triplicate 100 μL aliquots with 10 μL of solutions of HRP in water containing between 1.4×10^-15 and 1.4×10^-19 moles of enzyme. […] The relation between chemiluminescence intensity and amount of enzyme is depicted in FIG. 2.\nIn the manner of Example 21, compositions containing each of compounds 1-4 and 6-12 and 14 were reacted with HRP at 25° C. Each produced easily measurable chemiluminescence discernable above the background measured in the absence of HRP.\nThe chemiluminescence profile of acridan phosphate 5 reacted with HRP is depicted in FIG. 3. Reaction of 100 μL of the reagent composition of Example 20 with 1.4×10^-15 mol of HRP at 25° C. caused an instant rise in light emission which achieved maximum intensity in ca. 5 min.\nReagent compositions comprising 0.01M tris buffer, pH 8.0, 0.5 mM urea peroxide, 0.1 mM p-phenylphenol, 1 mM EDTA, 0.025% Tween 20 and 5×10^-5 M acridan 37 were tested for production of chemiluminescence by reacting triplicate 100 μL aliquots with 10 μL of HRP in the range 1.4×10^-14 to 1.4×10^-19 moles. […] The relation between chemiluminescence intensity and amount of enzyme is depicted in FIG. 4.\nA reagent composition (40 μL) comprising 0.01M tris buffer, pH 8.0, 0.5 mM urea peroxide, 0.1 mM p-phenylphenol, 1 mM EDTA, 0.025% Tween 20 and 5×10^-5 M acridan 38 was reacted with 1 μL of a solution containing 1.4×10^-15 moles of HRP. […] The chemiluminescence time profile is depicted in FIG. 5.\nReagent compositions comprising 0.01M tris buffer, pH 8.0, 0.5 mM urea peroxide, 0.1 mM p-phenylphenol, 1 mM EDTA, 0.025% Tween 20 and 5×10^-5 M acridan 39 were tested for production of chemiluminescence by reacting triplicate 100 μL aliquots with 10 μL of HRP in the range 1.4×10^-15 to 1.4×10^-20 moles. […] The relation between chemiluminescence intensity and amount of enzyme is depicted in FIG. 6.\nA reagent composition (100 μL) comprising 0.01M tris buffer, pH 8.0, 0.5 mM urea peroxide, 0.1 mM p-phenylphenol, 1 mM EDTA, 0.025% Tween 20 and 5×10^-5 M acridan 40 was reacted with 10 μL of a solution containing 1.4×10^-15 moles of HRP.\nA reagent composition (100 μL) comprising 0.01M tris buffer, pH 8.0, 0.5 mM urea peroxide, 0.1 mM p-phenylphenol, 1 mM EDTA, 0.025% Tween 20 and 5×10^-5 M acridan 50 was reacted with 2.5 μL of a solution containing 3.5×10^-16 moles of HRP. […] The chemiluminescence time profile is depicted in FIG. 7.\nReagent compositions comprising 0.055M tris buffer, pH 8.6, 0.25 mM urea peroxide, 0.05 mM p-phenylphenol, 0.5 mM EDTA, 0.0125% Tween 20, 1 mM CTAB and 6.6×10^-4 M acridan 43 were tested for production of chemiluminescence by reacting triplicate 100 μL aliquots with 10 μL of solutions of HRP containing between 1.4×10^-15 and 1.4×10^-19 moles of HRP. The relation between chemiluminescence intensity at 15 min and amount of enzyme is depicted in FIG. 8.\nReagent compositions comprising 0.055M tris buffer, pH 8.6, 0.25 mM urea peroxide, 0.05 mM p-phenylphenol, 0.5 mM EDTA, 0.0125% Tween 20, 1 mM CTAB and 6.6×10^-4 M compound 46 alone or with 50 μM DBA were tested for production of chemiluminescence by reacting a 100 μL aliquot with 3.5×10^-15 moles of HRP."}, "peroxidase": {"molecular_target": "T3, peroxidase (Armoracia rusticana, UniProt P00433)", "T3 construct": "isoenzyme C dominant", "T3 sequence (P00433 31-338)": "T1 sequence (P00433 31-338 limits assumed)", "test": "Reaction with a peroxidase and a peroxide to produce chemiluminescence (general statements)", "type": "biochemical", "settings": "with versus without CTAB", "protocol": "Another aspect of the present invention is the use of compounds of any of formulas I-VI in a method to produce chemiluminescence by reaction with a peroxidase. Reaction of a compound of formula I-VI with a peroxidase and a peroxide in an aqueous buffer solution produces easily detected chemiluminescence. Light intensity reaches a maximum level within minutes at room temperature when the reaction is conducted at alkaline pH. The reaction is conducted optionally in the presence of an enhancer. [drawing 15] Cationic surfactants, including quaternary ammonium salt compounds such as CTAB, are advantageous for use in increasing the level of chemiluminescence emitted when certain compounds of the present invention are reacted with a peroxidase and a peroxide."}, "[3]": {"settings": "0.055M tris pH 8.6, 0.25 mM urea peroxide, 0.05 mM p-phenylphenol, 3.3×10^-4 M compound, HRP 1.4×10^-15 to 1.4×10^-19 moles"}, "[4]": {"settings": "0.01M tris pH 8.0, 0.5 mM urea peroxide, 0.1 mM p-phenylphenol, 5×10^-5 M acridan"}},
  "note": "“Also recorded” adds a separate entry of the source.",
  "data": [
    {"smiles": "CN1c2ccccc2C(=C(Oc2ccccc2)OP(=O)(O)O)c2ccccc21", "note": "[Compound 1]", "values": [
      {"measurement": "Western blot result compared with reagent containing compound 5", "setting": "[1]", "result": "qualitatively the same result"}
    ]},
    {"smiles": "CN1c2ccccc2C(=C(OP(=O)(O)O)Sc2ccccc2)c2ccccc21", "note": "[Compound 5]", "values": [
      {"measurement": "duration over which emission could be imaged, Western blot, PVDF membrane", "setting": "[1]; 0.66 mM compound, tris pH 8.6", "result": "several hours"},
      {"measurement": "detection of β-gal in Western blot, PVDF membrane", "setting": "[1]; β-gal 5000, 1000, 180, 30 and 5 pg, 0.66 mM compound, 30 s exposure after 14 min", "result": "detection of β-gal; also recorded: detected"},
      {"measurement": "production of chemiluminescence on reaction with HRP", "setting": "[2]; [3]", "result": "Light production ensued upon mixing"},
      {"measurement": "time to maximum chemiluminescence intensity", "setting": "[2]; 100 μL reagent of Example 20 (0.055M tris pH 8.6, 3.3×10^-4 M acridan), 1.4×10^-15 mol HRP, 25° C.", "result": "ca. 5 min"}
    ]},
    {"smiles": "CN1c2ccccc2C(=C(OP(=O)(O)O)Sc2ccc(Cl)cc2)c2ccccc21", "note": "[Compound 12]", "values": [
      {"measurement": "Western blot result compared with reagent containing compound 5", "setting": "[1]", "result": "qualitatively the same result"}
    ]},
    {"smiles": "CN1c2ccccc2C(=C(OP(=O)(O)O)Sc2ccc3ccccc3c2)c2ccccc21", "note": "[Compound 13]", "values": [
      {"measurement": "Western blot result compared with reagent containing compound 5", "setting": "[1]", "result": "qualitatively the same result"},
      {"measurement": "production of chemiluminescence on reaction with HRP", "setting": "[2]; [3]", "result": "Light production ensued upon mixing"}
    ]},
    {"smiles": "CCOP(=O)(OCC)OC(Oc1ccccc1)=C1c2ccccc2N(C)c2ccccc21", "note": "[Compound 37]", "values": [
      {"measurement": "production of chemiluminescence on reaction with HRP", "setting": "[2]; [4]", "result": "Light production ensued upon mixing"}
    ]},
    {"smiles": "CCOP(=O)(OCC)OC(Sc1ccccc1)=C1c2ccccc2N(C)c2ccccc21", "note": "[Compound 38]", "values": [
      {"measurement": "production of chemiluminescence on reaction with HRP", "setting": "[2]; [4]", "result": "Light production ensued upon mixing"},
      {"measurement": "time to maximum chemiluminescence intensity", "setting": "[2]; 40 μL reagent, 0.01M tris pH 8.0, 5×10^-5 M acridan, 1.4×10^-15 moles HRP, 25° C.", "result": 1, "unit": "min"}
    ]},
    {"smiles": "CC(=O)OC(Oc1ccccc1)=C1c2ccccc2N(C)c2ccccc21", "note": "[Compound 39]", "values": [
      {"measurement": "production of chemiluminescence on reaction with HRP", "setting": "[2]; [4]", "result": "Light production ensued upon mixing"},
      {"measurement": "time to maximum chemiluminescence intensity", "setting": "[2]; 100 μL reagent, 0.01M tris pH 8.0, 5×10^-5 M acridan, HRP 1.4×10^-15 to 1.4×10^-20 moles", "result": 30, "unit": "min"}
    ]},
    {"smiles": "CC(=O)OC(Sc1ccccc1)=C1c2ccccc2N(C)c2ccccc21", "note": "[Compound 40]", "values": [
      {"measurement": "production of chemiluminescence on reaction with HRP", "setting": "[2]; [4]", "result": "Light production ensued upon mixing"},
      {"measurement": "time to maximum chemiluminescence intensity", "setting": "[2]; 100 μL reagent, 0.01M tris pH 8.0, 5×10^-5 M acridan, 1.4×10^-15 moles HRP", "result": 7, "unit": "min"}
    ]},
    {"smiles": "CC(=C(OP(=O)(O)O)Sc1ccccc1)c1ccc2cc(O)ccc2c1", "note": "[Compound 43]", "values": [
      {"measurement": "change of light intensity when CTAB was included in the reaction mixture", "setting": "peroxidase", "result": "increased more than ten-fold"}
    ]},
    {"smiles": "O=P(O)(O)OC(Sc1ccccc1)=C(c1ccccc1)c1ccccc1", "note": "[Compound 46]", "values": [
      {"measurement": "change of light intensity when CTAB was included in the reaction mixture", "setting": "peroxidase", "result": "increased more than ten-fold"},
      {"measurement": "effect of triplet energy acceptor DBA on chemiluminescence", "setting": "[2]; 0.055M tris pH 8.6, 1 mM CTAB, 6.6×10^-4 M compound alone or with 50 μM DBA, 3.5×10^-15 moles HRP", "result": "enhancement of chemiluminescence"}
    ]},
    {"smiles": "COC(Sc1ccccc1)=C1c2ccccc2N(C)c2ccccc21", "note": "[Compound 50]", "values": [
      {"measurement": "production of chemiluminescence on reaction with HRP", "setting": "[2]; [4]", "result": "Light production ensued upon mixing"},
      {"measurement": "time to maximum chemiluminescence intensity", "setting": "[2]; 100 μL reagent, 0.01M tris pH 8.0, 5×10^-5 M acridan, 3.5×10^-16 moles HRP, 25° C.", "result": 7, "unit": "min"}
    ]}
  ]
}
